Columns and labels:
[1] = system: E. coli AB 2480 (uvrA recA)
S. typhimurium TA 1530 = assay type: cell-based, Salmonella typhimurium
[2] = microsomes
S. typhimurium his G46 = assay type: cell-based, Salmonella typhimurium
S. typhimurium his C207 = assay type: cell-based, Salmonella typhimurium
rat liver = conditions: in vivo; cited from earlier work
Drosophila = conditions: in vivo; cited from earlier work
Neurospora = conditions: cited from earlier work
[3] = system: bacterial transforming DNA; conditions: cited from earlier work
in vitro = conditions: male, Wistar, Escherichia coli (indicator bacteria); rat (liver fraction)

Molecule: COc1cccc2oc3c4c(cc(OC)c3c(=O)c12)OC1OC=CC41 (centres unmarked) [O-methylsterigmatocystin]
- Formation of toxic metabolites on incubation with mixed function oxidases [1]: Toxic metabolites were also formed

Molecule: COc1cc2c(c3oc(=O)cc(CCO)c13)C1C=COC1O2 (centres unmarked) [Parasiticol, parasiticol]
- Formation of toxic metabolites on incubation with mixed function oxidases [1]: Toxic metabolites were also formed

Molecule: C1CCC2OC2C1 (centres unmarked) [cyclohexene oxide]
- Effect of added agent on bacterial killing by the aflatoxin B1 metabolite (S. typhimurium TA 1530): did not alter bacterial killing

Molecule: OCC(S)CS (centres unmarked) [2,3-Dimercaptopropanol]
- Effect of added agent on bacterial killing by the aflatoxin B1 metabolite (S. typhimurium TA 1530): some protective action
- Inhibition of killing (fold) (S. typhimurium TA 1530): three-fold
- Survivors in the presence of dimercaptopropanol (S. typhimurium TA 1530): 42%
- Effect on amount of aflatoxin B1 metabolized [2]: no alteration in the amount of aflatoxin B1 metabolized

Molecule: CSCC[C@H](N)C(=O)O [methionine]
- Effect of added agent on bacterial killing by the aflatoxin B1 metabolite (S. typhimurium TA 1530): did not alter bacterial killing

Molecule: aflatoxin B1
- Effect of incubation at 30 C on number of bacteria killed (S. typhimurium TA 1530): a decrease in the number of bacteria killed
- Mutation of the strain by the aflatoxin B1 metabolite (S. typhimurium his G46): not mutated by it
- Sensitivity of the strain to the toxic effects of the metabolite (S. typhimurium his G46): resistant to the toxic effects
- Mutation of the strain by the aflatoxin B1 metabolite (S. typhimurium his C207): not mutated by it
- Sensitivity of the strain to the toxic effects of the metabolite (S. typhimurium his C207): resistant to the toxic effects
- Killing activity with heat denatured liver preparation [1]: abolished all killing activity
- Liver carcinogenicity (rat liver): most potent liver carcinogen known for the rat
- Mutagenicity (Drosophila): mutagenic
- Mutagenicity (Neurospora): mutagenic
- Mutagenicity [3]: mutagenic

Molecule: sodium sulphide
- Effect of added agent on bacterial killing by the aflatoxin B1 metabolite (S. typhimurium TA 1530): did not alter bacterial killing

Molecule: c1ccc2c(c1)cc1ccc3cccc4ccc2c1c34 [benzo(a)pyrene, reference compound]
- Effect of pretreatment of rats on amount of lethal aflatoxin B1 metabolite formed by liver [1]: did not alter the amount

Molecule: COc1c2c(c3oc4cccc(O)c4c(=O)c3c1OC)C1C=COC1O2 (centres unmarked) [5-methoxysterigmatocystin]
- Formation of toxic metabolites on incubation with mixed function oxidases [1]: Toxic metabolites were also formed

Molecule: O=C1c2cc(O)cc(O)c2C(=O)c2c1cc1c(c2O)[C@@H]2C=CO[C@@H]2O1 [Versicolorin A, versicolorin A]
- Formation of toxic metabolites on incubation with mixed function oxidases [1]: Toxic metabolites were also formed

Molecule: N[C@@H](CCC(=O)N[C@@H](CS)C(=O)NCC(=O)O)C(=O)O [glutathione]
- Effect of added agent on bacterial killing by the aflatoxin B1 metabolite (S. typhimurium TA 1530): did not alter bacterial killing

Molecule: COc1cc2c(c3oc4cccc(O)c4c(=O)c13)[C@@H]1C=CO[C@@H]1O2 [sterigmatocystin]
- Survival [no. viable bacteria (treated)/no. viable bacteria (control) x 100] [1]: 0- 3
- viability (in vitro): 0.5%

Molecule: N[C@@H](CS)C(=O)O [cysteine]
- Effect of added agent on bacterial killing by the aflatoxin B1 metabolite (S. typhimurium TA 1530): did not alter bacterial killing

Molecule: Cc1ccc2cc3c(ccc4ccccc43)c3c2c1CC3 [3-methylcholanthrene, reference compound]
- Effect of pretreatment of rats on amount of lethal aflatoxin B1 metabolite formed by liver [1]: did not alter the amount

Molecule: CCC1(c2ccccc2)C(=O)NC(=O)NC1=O [Phenobarbitone, phenobarbitone, reference compound]
- Effect of pretreatment of rats on amount of lethal aflatoxin B1 metabolite formed by liver [1]: an increase was observed

Molecule: O=S([O-])([O-])=S.[Na+].[Na+] [sodium thiosulphate]
- Effect of added agent on bacterial killing by the aflatoxin B1 metabolite (S. typhimurium TA 1530): did not alter bacterial killing

— publication PMC2008936 (British Journal of Cancer, 1973)
